Data: patent US20150080475A1, “Memantine Protects Inflammation-Related Degeneration of Dopamine Neurons Through Inhibition of Over-Activated Microglia and Release of Neurotrophic Factors From Astroglia” (priority 2009, published 2015)

Tests used:
[1] = test system: TNF-α; experiment: TNF-α ELISA after LPS; format: cell-based; settings: 4 h after LPS treatment
Description: The production of TNF-α was measured with a commercial ELISA kit from R&D Systems. The PGE2 release was measured with a commercial ELISA kit from Cayman Chemical Company.
Neuron-glia cultures were pretreated for 30 min with MMT (3 μM) or vehicle before LPS stimulation. […] Production of superoxide (30 min after LPS) and iROS (2 h after LPS) was decreased by MMT treatment (FIGS. 6A and 6B). […] The production of PGE2 in cultures pretreated with 3 and 10 μM MMT decreased by 23% and 27% respectively (FIG. 6E).

[2] = molecular target: T1, gp 91 (Homo sapiens, UniProt P04839); experiment: Competition of [3H]-labeled naloxine binding; settings: preliminary data
T1 sequence (P04839 1-570): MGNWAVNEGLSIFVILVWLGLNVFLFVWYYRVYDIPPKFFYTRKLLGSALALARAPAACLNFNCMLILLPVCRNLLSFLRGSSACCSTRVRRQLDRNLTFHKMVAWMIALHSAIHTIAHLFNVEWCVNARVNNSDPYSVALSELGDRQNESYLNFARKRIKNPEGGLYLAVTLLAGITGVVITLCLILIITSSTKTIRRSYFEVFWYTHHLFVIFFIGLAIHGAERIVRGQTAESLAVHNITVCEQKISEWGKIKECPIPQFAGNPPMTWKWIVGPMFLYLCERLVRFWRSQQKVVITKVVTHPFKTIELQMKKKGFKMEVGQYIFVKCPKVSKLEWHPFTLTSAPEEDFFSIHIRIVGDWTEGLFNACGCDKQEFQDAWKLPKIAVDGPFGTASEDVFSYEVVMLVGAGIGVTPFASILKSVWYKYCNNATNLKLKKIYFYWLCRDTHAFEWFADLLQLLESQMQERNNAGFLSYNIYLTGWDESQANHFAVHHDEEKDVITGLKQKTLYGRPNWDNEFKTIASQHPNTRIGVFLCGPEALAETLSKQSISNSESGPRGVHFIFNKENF
T1 sequence (P13498 1-195 partner): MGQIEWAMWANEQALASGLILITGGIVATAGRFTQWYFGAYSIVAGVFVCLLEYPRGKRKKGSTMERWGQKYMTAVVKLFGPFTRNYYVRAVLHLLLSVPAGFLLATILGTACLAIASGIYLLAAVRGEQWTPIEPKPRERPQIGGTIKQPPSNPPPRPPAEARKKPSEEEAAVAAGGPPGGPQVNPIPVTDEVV
Description: (§1) Results from two sets of experiments support this conclusion. […] Thus, the failure for MMT to protect LPS-induced DA neurons toxicity in NADPH oxidase-deficient neuron/glia cultures implies a critical role of this enzyme in mediating the neuroprotective effect of MMT. The present invention determines the binding site of MMT in microglia.

[3] = test system: DA neurons; experiment: LPS-induced neurotoxicity in neuron/glia cultures from NADPH oxidase-deficient mice; format: cell-based; settings: NADPH oxidase-deficient (gp 91 lacking) neuron/glia cultures, preliminary data
Description: as §1
Timed-pregnant (gestational day 14) adult female Fisher 344 rats were purchased from Charles River Laboratories (Raleigh, N.C., USA). Eight-wk-old (25-30 g) male and female B6.129S6-Cybb^tm1Din(PHOX^−/−) and C57BL/6J (PHOX^+/+) mice were purchased from Jackson Laboratories (Bar Harbor, Me., USA) and maintained in a strict pathogen free environment. The PHOX^−/− mice lack the functional catalytic subunit of the NADPH oxidase complex, gp91. NADPH oxidase is an inducible electron transport system in phagocytic cells that is responsible for the generation of the respiratory burst. PHOX^−/− mice are unable to generate extracellular superoxide in response to LPS or other immunological stimulus. Breeding of the mice was designed to achieve accurate timed-pregnancy±0.5 days. Because the PHOX^−/− mutation is maintained in the C57BL/6J background, the C57BL/6J (PHOX^+/+) mice were used as control animals. Housing, breeding and experimental use of the animals were performed in strict accordance with the National Institutes of Health guidelines. […]

[4] = Glutamate and aspartate concentrations in supernatants of primary neuron-glia cultures; format: cell-based; settings: vehicle, 10 μM MMT, LPS 5 ng/ml, MMT plus LPS
Description: Primary neuron-glia cultures seeded in 24-well plates at a density of 5×10^5 cells/well for 7 days. Then, the cultures were treated with vehicle, 10 μM MMT, LPS 5 ng/ml, and MMT 10 μM and LPS 5 ng/ml, and supernatants derived from the primary neuron-glia cultures at indicated time points.
To determine the possibility that NMDA receptors might play a role in our mixed neuron/glia cultures in MMT-elicited neuroprotection, this invention determine the concentrations of excitatory amino acid, glutamate and aspartate in the supernatant of cultures after LPS treatment. Several authors reported the release of excitatory amino acid release from microglia by higher concentration of LPS (100 ng/ml). However, the concentration of glutamate released was limited to 10-20 μM, which may not be in sufficient concentrations to produce significant neuronal death (Obrenovitch et al. Excitotoxicity in neurological disorders--the glutamate paradox. Int J Dev Neurosci. 2000; 18:281-7.). In mixed neuron/glia cultures of this invention, with lower concentration of LPS (5 ng/ml) which was toxic to DA neurons, this invention could not detect any increases in both glutamate and aspartate (FIG. 13).

## CC12CC3CC(C)(C1)CC(N)(C3)C2.Cl [MMT, 1-amino-3,5-dimethyladamantane hydrochloride]
[1]
  release of TNF-α: reduced
[2]
  competing the binding of [3H]-labeled naloxine: effective in competing the binding
[3]
  neuroprotective effect on LPS-induced neurotoxicity: failed to produce any neuroprotective effect
[4]
  aspartate concentration in supernatant: not obviously different
  glutamate concentration in supernatant: not obviously different
